From patent publication US8362018B2, “Substituted imidazo[1,2-a]pyrazine compounds useful for the treatment of viral infections” (Biofocus DPI, Ltd., priority 2007, dated 2013)

Tests used:
[1] = tested on: CVB-2; assay: antiviral profiling, CVB-2 in Vero cells (Table 14); type: cell-based, coxsackie B virus
[2] = tested on: HRV-14; assay: antiviral activity, HRV-14 in HeLa cells (Table 15); type: cell-based, human rhinovirus 14 (HRV-14); conditions: Rhinovirus B, HRV14; HRV-14 (HeLa cells)
[3] = in vitro; conditions: Syrian hamster
[4] = in vitro; conditions: African green monkey
[5] = cytotoxicity CC50 in MT-4 cells (Table 14); type: cell-based; conditions: human, HIV column
[6] = cytotoxicity measurement (CC50), Table 13; type: cell-based; conditions: human, Huh7 cells
[7] = tested on: HIV; assay: antiviral profiling, HIV in MT-4 cells (Table 14); type: cell-based; conditions: Human immunodeficiency virus 1, MT4
[8] = tested on: Influenza; assay: antiviral profiling, Influenza in MDCK cells (Table 14); type: cell-based
[9] = tested on: HSV-1; assay: antiviral profiling, HSV-1 in Vero cells (Table 14); type: cell-based; conditions: Human alphaherpesvirus 1; HSV-1, Vero cells
[10] = tested on: HRV-2; assay: antiviral activity, HRV-2 in HeLa cells (Table 15); type: cell-based, human rhinoviruses (HRV); conditions: Rhinovirus A, HRV2; HRV-2 (HeLa cells)
[11] = tested on: HRV clinical isolate; assay: antiviral activity, HRV clinical isolate in HeLa cells (Table 15); type: cell-based, human rhinoviruses (HRV); conditions: Enterovirus
[12] = tested on: YFV; assay: microbe, parasite or virus in culture; type: cell-based; conditions: Yellow fever virus, BHK-21
[13] = cytotoxicity CC50 in Huh7 cells (Table 14); type: cell-based; conditions: human, HCV column
[14] = tested on: RSV; assay: antiviral profiling, RSV in Vero cells (Table 14); type: cell-based; conditions: human respiratory syncytial virus
[15] = tested on: Vero; assay: cytotoxicity CC50 in Vero cells (Table 14)
[16] = tested on: HCV replicon; assay: anti-viral assay (EC50), Table 13; type: cell-based; conditions: Hepatitis C virus, anti-viral assays
[17] = tested on: Sb-1; assay: microbe, parasite or virus in culture; type: cell-based, poliovirus; conditions: Enterovirus C, Vero
[18] = tested on: HCV; assay: antiviral profiling, HCV in Huh7 cells (Table 14); type: cell-based; conditions: Hepatitis C virus, Huh-7
[19] = cytotoxicity CC50 in MDCK cells (Table 14); conditions: dog
[20] = tested on: HeLa cells; assay: cytotoxicity CC50 in HeLa cells (Table 15); type: cell-based
[21] = cytotoxicity CC50 in HeLa cells (Table 15); type: cell-based; conditions: human, HRV-2 column
[22] = tested on: VSV; assay: microbe, parasite or virus in culture; type: cell-based; conditions: Vesicular stomatitis virus, Vero

Q: With `NS(=O)(=O)c1ccc(CNc2nccn3c(-c4ccc(O)cc4)cnc23)cc1` [Compound 1, 4-{[3-(4-Hydroxy-phenyl)-imidazol[1,2-a]pyrazin-8-ylamino]-methyl}-benzenesulfonamide] as the compound, how does the EC50 [1] read?
A: Its EC50 is under 1000 nM.

Q: What about the EC50 [2] of the same compound?
A: Its EC50 is under 1 µg/mL.

Q: And the CC50 [3]?
A: Its CC50 is under 35 µM.

Q: What about the CC50 [4] of the same compound?
A: The CC50 was over 35 µM.

Q: What about the CC50 ([4]; Vero cells) of the same compound?
A: The CC50 was over 35 µM.

Q: What about the CC50 [5] of the same compound?
A: The CC50 was under 35 µM.

Q: And the CC50 [6]?
A: Its CC50 is over 35 µM.

Q: What about the EC50 [7] of the same compound?
A: The EC50 was 1 to 20 µM.

Q: And the EC50 [8]?
A: Its EC50 is over 20 µM.

Q: And the EC50 [9]?
A: Its EC50 is over 20 µM.

Q: What about the EC50 [10] of the same compound?
A: Its EC50 is under 1 µg/mL.

Q: What about the EC50 [11] of the same compound?
A: The EC50 was under 1 µg/mL.

Q: What about the EC50 [12] of the same compound?
A: Its EC50 is 1 to 20 µM.

Q: What about the CC50 [13] of the same compound?
A: Its CC50 is over 35 µM.

Q: And the EC50 [14]?
A: Its EC50 is over 20 µM.

Q: What about the CC50 ([15]; HSV-1) of the same compound?
A: The CC50 was over 35 µM.

Q: And the CC50 ([15]; RSV column)?
A: The CC50 was over 35 µM.

Q: What about the CC50 ([15]; Sb-1 column) of the same compound?
A: The CC50 was over 35 µM.

Q: What about the EC50 [16] of the same compound?
A: The EC50 was under 1000 nM.

Q: What about the EC50 [17] of the same compound?
A: The EC50 was under 1000 nM.

Q: What about the EC50 [18] of the same compound?
A: Its EC50 is under 1000 nM.

Q: And the CC50 [19]?
A: The CC50 was over 35 µM.

Q: And the “CC50(μg/mL)” value ([20]; HRV clinical isolate column)?
A: Its value is “* (>35 μg/mL)”.

Q: What about the “CC50(μg/mL)” value ([20]; HRV-14 column) of the same compound?
A: Its value is “* (>35 μg/mL)”.

Q: And the CC50 [21]?
A: The CC50 was over 35 µg/mL.

Q: And the EC50 [22]?
A: Its EC50 is over 20 µM.
